Our source for the IC50 and Ratio values is ChEMBL document CHEMBL1131963, “Novel benzo-fused lactam scaffolds as factor Xa inhibitors” (Bioorg Med Chem Lett, 1999).

Experiment [1] has as its target T1, Coagulation factor X (Homo sapiens, UniProt P00742). As to the kind of experiment: In vitro inhibitory activity against human enzyme Coagulation factor X.
A further experiment addresses Plasminogen (Homo sapiens, UniProt P00747). Briefly: In vitro inhibitory activity against human enzyme plasmin.
The target in experiment [2] is T1, Coagulation factor X. As to the kind of experiment: In vitro inhibitory activity against human prothrombinase.
The target in experiment [3] is T2, Prothrombin (Homo sapiens, UniProt P00734). As to the kind of experiment: In vitro inhibitory activity against human enzyme thrombin.
Experiment [4] in a line: Ratio against factor Xa to prothrombinase.
The target of experiment [5] is T3, Serine protease 1 (Homo sapiens, UniProt P07477). Briefly: In vitro evaluation of inhibition of cleavage of the chromogenic substrate by human enzyme trypsin.
For experiment [6], the target named is T2, Prothrombin. As to the kind of experiment: In vitro inhibitory activity against by human enzyme thrombin.
The target in experiment [7] is T3, Serine protease 1. Briefly: In vitro inhibitory activity against human enzyme trypsin.
The target of experiment [8] is T1, Coagulation factor X. Briefly: In vitro inhibitory activity against prothrombinase.

Sequence of Plasminogen (P00747 97-580 limits assumed): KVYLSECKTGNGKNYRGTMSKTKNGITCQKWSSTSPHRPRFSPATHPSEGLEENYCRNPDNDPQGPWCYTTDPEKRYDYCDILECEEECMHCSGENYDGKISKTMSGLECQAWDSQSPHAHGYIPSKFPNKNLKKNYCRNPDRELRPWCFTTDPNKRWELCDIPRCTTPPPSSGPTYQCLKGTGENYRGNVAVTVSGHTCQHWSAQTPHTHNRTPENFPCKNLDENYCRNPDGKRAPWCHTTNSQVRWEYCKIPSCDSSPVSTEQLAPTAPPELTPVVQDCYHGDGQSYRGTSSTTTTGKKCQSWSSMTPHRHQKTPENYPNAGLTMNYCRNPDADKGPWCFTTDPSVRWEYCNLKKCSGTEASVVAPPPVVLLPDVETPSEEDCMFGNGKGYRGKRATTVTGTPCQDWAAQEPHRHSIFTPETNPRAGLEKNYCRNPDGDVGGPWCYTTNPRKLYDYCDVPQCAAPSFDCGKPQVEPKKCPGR
Sequence of Plasminogen (P00747 581-810 limits assumed): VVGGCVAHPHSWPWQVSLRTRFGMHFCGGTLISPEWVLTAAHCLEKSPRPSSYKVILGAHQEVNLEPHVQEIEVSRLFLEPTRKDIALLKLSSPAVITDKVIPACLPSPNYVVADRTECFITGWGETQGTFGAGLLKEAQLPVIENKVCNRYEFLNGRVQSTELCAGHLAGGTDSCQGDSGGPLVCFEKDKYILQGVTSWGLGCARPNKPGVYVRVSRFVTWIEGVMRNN
T1 sequence (P00742 41-179 limits assumed): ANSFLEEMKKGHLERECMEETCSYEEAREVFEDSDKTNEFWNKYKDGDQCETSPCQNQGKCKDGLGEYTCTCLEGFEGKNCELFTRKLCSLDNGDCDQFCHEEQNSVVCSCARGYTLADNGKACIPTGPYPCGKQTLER
T1 sequence (P00742 235-488 limits assumed): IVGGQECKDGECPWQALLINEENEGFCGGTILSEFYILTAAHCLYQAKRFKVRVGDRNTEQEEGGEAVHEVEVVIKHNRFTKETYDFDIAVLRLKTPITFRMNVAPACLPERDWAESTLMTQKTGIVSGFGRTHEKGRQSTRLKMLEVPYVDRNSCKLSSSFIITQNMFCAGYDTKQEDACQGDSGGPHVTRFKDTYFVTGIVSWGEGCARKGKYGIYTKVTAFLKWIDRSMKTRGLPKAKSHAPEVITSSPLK
T3 sequence (P07477 whole entry): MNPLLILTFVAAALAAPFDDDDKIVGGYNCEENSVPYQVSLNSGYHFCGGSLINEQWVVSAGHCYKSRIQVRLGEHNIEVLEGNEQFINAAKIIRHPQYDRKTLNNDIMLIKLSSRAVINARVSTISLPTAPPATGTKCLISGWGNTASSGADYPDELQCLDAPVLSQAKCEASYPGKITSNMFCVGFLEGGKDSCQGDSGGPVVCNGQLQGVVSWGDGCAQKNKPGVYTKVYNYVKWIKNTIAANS

With `COc1cccc2c1CC[C@H](NS(=O)(=O)Cc1ccccc1)C(=O)N2CC(=O)N[C@H]1CCCN(C(=N)N)C1O` (some centres not stated), the IC50 (as a rule, the point on the concentration scale where inhibition reaches its midpoint) against Coagulation factor X [1] is 8.6 nM; at Plasminogen, > 2500 nM; against Coagulation factor X [2], 26.7 nM; at Prothrombin [3], 235 nM; on Serine protease 1 [5] it was 77 nM. In experiment [4], the Ratio worked out at 3.1.

For the compound `COc1ccc2c(c1)N(CC(=O)N[C@H]1CCCN(C(=N)N)C1O)C(=O)[C@@H](NS(=O)(=O)Cc1ccccc1)CC2` (some centres not stated), the IC50 at Coagulation factor X [1] was 28.9 nM; against Plasminogen, > 2500 nM; against Coagulation factor X [2], 64.3 nM; on Prothrombin [3] it was > 2500 nM; against Serine protease 1 [5], 40 nM. The Ratio in experiment [4] came out at 2.2.

For `COc1ccc2c(c1)CC[C@H](NS(=O)(=O)Cc1ccccc1)C(=O)N2CC(=O)N[C@H]1CCCN(C(=N)N)C1O` (some centres not stated), the IC50 was 7.2 nM on Coagulation factor X [1]; > 2500 nM on Plasminogen; 34.9 nM against Coagulation factor X [2]; > 2500 nM against Prothrombin [3]; 110 nM against Serine protease 1 [5]. In [4], the Ratio was found to be 4.8.

`COc1ccc2c(c1)CC[C@H](NS(=O)(=O)c1ccc3ccccc3c1)C(=O)N2CC(=O)N[C@H]1CCCN(C(=N)N)C1O` (some centres not stated): the IC50 against Coagulation factor X [1] was 3.6 nM; against Plasminogen it was > 2500 nM; against Coagulation factor X [2] it was 19.1 nM; at Prothrombin [6] it was 285 nM; on Serine protease 1 [5], 27 nM. Further, the Ratio in experiment [4] came out at 5.3.

`N=C(N)N1CCC[C@H](NC(=O)CN2C(=O)[C@H](NS(=O)(=O)Cc3ccccc3)CCc3ccccc32)C1O` (some centres not stated): the IC50 on Coagulation factor X [1] is 49 nM; against Plasminogen it was > 2500 nM; against Prothrombin [3], 192 nM; against Serine protease 1 [7] it was 135 nM.

Regarding `N=C(N)N1CCC[C@H](NC(=O)CN2C(=O)C(NS(=O)(=O)Cc3ccccc3)Cc3ccccc32)C1O` (some centres not stated), the IC50 is > 2500 nM against Coagulation factor X [1], > 2500 nM at Plasminogen, 17.9 nM at Prothrombin [3] and 289 nM against Serine protease 1 [7].

Turning to `COc1ccc2c(c1)CC[C@H](NS(=O)(=O)CC1CCCCC1)C(=O)N2CC(=O)N[C@H]1CCCN(C(=N)N)C1O` (some centres not stated), the half-inhibitory concentration (IC50) was 1.9 nM against Coagulation factor X [1]; > 2500 nM against Plasminogen; 9.9 nM at Coagulation factor X [8]; 829 nM against Prothrombin [3]; 1.5 nM against Serine protease 1 [7]. In addition, the Ratio in experiment [4] was determined as 5.2.

`N=C(N)N1CCC[C@H](NC(=O)CN2CCCC[C@H](NS(=O)(=O)Cc3ccccc3)C2=O)C1O` (some centres not stated): the values for the IC50 on Coagulation factor X [1], against Plasminogen and at Serine protease 1 [7] were 20.6 nM, > 2500 nM and 75 nM, respectively.

In the case of `N=C(N)N1CCC[C@H](NC(=O)CN2C(=O)[C@@H](NS(=O)(=O)Cc3ccccc3)CCc3ccccc32)C1O` (some centres not stated), the IC50 is 7.3 nM against Coagulation factor X [1]; > 2500 nM against Plasminogen; 17.1 nM against Coagulation factor X [2]; 178 nM against Prothrombin [3]; 26 nM against Serine protease 1 [7]. The Ratio in experiment [4] amounted to 2.3.
